Reference: patent US20090264415A2 (priority 2004, published 2009)
pEC50, pIC50: −log10 of the molar value. Read-outs that look alike come from different tables or passages of the source. Values belong to the compound of their own block, whether it stands above or below them.

Key:
[1] = test system: peripheral blood mononuclear cells (PBMC) stimulated with allogeneic PBMC or EBV-transformed human B cells (RPMI1788); test: Mixed lymphocyte reaction (MLR) assay; type: cell-based; conditions: for pIC50: 50% suppression of the MLR, [3H]-thymidine incorporation, read-out: MLR
Summary of the method: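 Compounds, held as 10 mM DMSO stocks and diluted in culture medium, were added to PBMC stimulated by 30 Gy-irradiated allogeneic PBMC or RPMI1788 cells. Proliferation was read as [3H]-thymidine uptake (1 μCi, final 16 h) after 5 days at 37° C. Inhibition was derived from cpm.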

[2] = test system: production of human TNF-α by PBMC in response to LPS; test: TNF-α assay (LPS-stimulated PBMC, sandwich ELISA); type: cell-based; conditions: for pIC50: LPS 1 μg/ml, 72 hours, read-out: TNF α
Summary of the method: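 Human PBMC isolated from heparinised blood by density gradient (10^6 cells/ml) stimulated with LPS at 1 μg/ml final, with test compound at 0.1, 1 and 10 μM, 72 h at 37° C, 5% CO2. Supernatant TNF-α quantified by sandwich ELISA against recombinant standard curve; % suppression calculated.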

[3] = test system: production of human IL-1β by PBMC in response to LPS; test: IL-1β assay (LPS-stimulated PBMC, sandwich ELISA); type: cell-based; conditions: LPS 1 μg/ml, 72 hours
Description: Peripheral blood mononuclear cells (herein referred as PBMC), in response to stimulation by lipopolysaccharide (LPS), a gram-negative bacterial endotoxin, produce various […], in particular human IL-1β. Inhibition of the activation of PBMC can therefore be measured by the level of suppression of the production of IL-1β by PBMC in response to stimulation by LPS.
Such inhibition measurement was performed as follows: PBMC were isolated from heparinized peripheral blood by density gradient centrifugation over Lymphoprep (commercially available from Nycomed, Norway). LPS was then added to the PMBC suspension in complete medium (10^6 cells/ml) at a final concentration of 1 μg/ml. The pteridine derivative to be tested was added at different concentrations (0.1 μM, 1 μM and 10 μM) and the cells were incubated at 37° C. for 72 hours in 5% CO2. The supernatants were collected, then IL-1β concentrations were measured with an anti-IL-1β antibody in a sandwich ELISA. The calorimetric reading of the ELISA was measured by a Multiskan RC plate reader (commercially available from ThermoLabsystems, Finland) at 450 nm (reference wavelength: 690 nm). Data analysis was performed with Ascent software 2.6. (also from ThermoLabsystems, Finland): a standard curve (recombinant human IL-1β) was drawn and the amount (pg/ml) of each sample on the standard curve was determined.
The % suppression of human IL-1β by the pyrido[3,2-d]pyrimidine derivatives of this invention was calculated using the formula: [formula]

[4] = test system: phosphodiesterase-4 (PDE-4) extract from U937 cells; test: Phosphodiesterase-4 inhibiting activity (isotopic two-step method); type: biochemical; conditions: 1.01 μM [3H]cAMP+cAMP
[5] = test system: HCV replicon in Huh-5-2 cells; test: Anti-HCV assay/replicon assay (luciferase); type: cell-based; conditions: Hepatitis C virus
Description: (§1) Huh-5-2 cells [a cell line with a persistent HCV replicon I3891uc-ubi-neo/NS3-3′/5.1; replicon with firefly luciferase-ubiquitin-neomycin phosphotransferase fusion protein and EMCV-IRES driven NS3-5B HCV polyprotein] was cultured in a RPMI medium (commercially available from Gibco) supplemented with 10% fetal calf serum, 2 mM L-glutamine (commercially available from Life Technologies), 1× non-essential amino acids (commercially available from Life Technologies); 100 IU/ml penicillin, 100 μg/ml streptomycin and 250 μg/ml G418 (Geneticin, commercially available from Life Technologies). Cells were seeded at a density of 7,000 cells per well in 96 well View Plate (commercially available from Packard) in a medium containing the same components as described above, except for G418. Cells were allowed to adhere and proliferate for 24 hours. […] Luciferase activity was measured by adding 50 μl of 1×Glo-lysis buffer (commercially available from Promega) for 15 minutes followed by 50 μl of the Steady-Glo Luciferase assay reagent (commercially available from Promega). Luciferase activity was measured with a luminometer and the signal in each individual well was expressed as a percentage of the untreated cultures. […] Instead the density of the culture was measured by means of the MTS method (commercially available from Promega). […]

[6] = Cytostatic effect on Huh-5-2 cells (MTS method); type: cell-based; conditions: human, 50% inhibition of cell growth
Description: as §1

SMILES: COc1ccc(-c2ccc3nc(N)nc(N4CCN(C(=O)Nc5cccc(C)c5)CC4)c3n2)cc1OC [Example 42, 2-amino-4-(4-{[(3-methylphenyl)amino]carbonyl}piperazin-1-yl)-6-(3,4-dimethoxyphenyl)-pyrido[3,2-d]pyrimidine]
- pIC50 ([1]; Homo sapiens, RPMI-1788): 10.19
- pIC50 ([2]; Homo sapiens, PBMC): 7.22
- pIC50 ([3]; Homo sapiens, PBMC): 5.74
- pIC50 [4]: 7.21

SMILES: COc1ccc(-c2ccc3nc(N)nc(N4CCOCC4)c3n2)cc1OC [Example 41, 2-amino-4-morpholino-6-(3,4-dimethoxyphenyl)-pyrido[3,2-d]pyrimidine]
- pIC50 ([1]; Homo sapiens, RPMI-1788): 7.43
- pIC50 ([2]; Homo sapiens, PBMC): 7.52
- pIC50 ([3]; Homo sapiens, PBMC): 5.10
- pIC50 [4]: 6.39

SMILES: CCCOc1nc(NC(C)=O)nc2ccc(Cl)nc12
- melting point: 191 °C

SMILES: CC(=O)Nc1nc(OC(C)C)c2nc(Cl)ccc2n1
- melting point: 244 °C

SMILES: COc1ccc(-c2ccc3nc(N)nc(N[C@H]4CC[C@H](N)CC4)c3n2)cc1OC [Example 36]
- IC50 ([1]; Homo sapiens, RPMI-1788, read-out: MLR (μM)): 6500 nM
- IC50 ([2]; Homo sapiens, PBMC, 72 h, read-out: TNF α (μM)): 2.9 µM
- pEC50 ([5]; Huh-5-2, 72 h): 6.00
- CC50 at 72 h [6]: 7700 nM

SMILES: COc1ccc(-c2ccc3nc(N)nc(NCc4cccs4)c3n2)cc1OC [Example 32, 2-amino-4-(thienyl-2-methylamino)-6-(3,4-dimethoxyphenyl)-pyrido[3,2-d]pyrimidine-2,4-diamine]
- pIC50 [1]: 6.10
- pIC50 [2]: 6.10
- pIC50 [3]: 5.16

SMILES: CCCCCOc1nc(NC(C)=O)nc2ccc(Cl)nc12
- melting point: 174 °C

SMILES: CCOc1nc(N)nc2ccc(-c3cccc(F)c3)nc12
- melting point: 174 °C

SMILES: CCCCOc1nc(N)nc2ccc(-c3cccc(F)c3)nc12
- melting point: 160 to 161 °C

SMILES: COc1ccc(-c2ccc3nc(N)nc(Nc4cccc(C)c4)c3n2)cc1OC [Example 27, 2-amino-4-(3-methyl-anilino)-6-(3,4-dimethoxyphenyl)-pyrido[3,2-d]pyrimidine]
- pIC50 ([1]; Homo sapiens, RPMI-1788): 5.24
- pIC50 ([2]; Homo sapiens, PBMC): 5.19
- pEC50 ([5]; Huh-5-2 replicon cells, 72 hours, read-out: EC50): 6.30
- CC50 at 72 h [6]: > 50000 nM

SMILES: CCC(C)Oc1nc(N)nc2ccc(-c3ccc(F)cc3)nc12 (stereo not drawn)
- melting point: 148 °C

SMILES: CCC(C)Oc1nc(NC(C)=O)nc2ccc(Cl)nc12 (stereo not drawn)
- melting point: 143 to 144 °C

SMILES: CC(=O)Nc1nc2ccc(Cl)nc2c(=O)[nH]1
- melting point: 317 to 319 °C

SMILES: CCC(C)Oc1nc(N)nc2ccc(-c3cccc(F)c3)nc12 (stereo not drawn)
- melting point: 158 to 159 °C

SMILES: NC(=O)c1nc(Cl)ccc1N
- melting point: 176 to 177 °C

More lines, now with the values ahead:

- melting point: 225 °C
SMILES: Nc1nc(OCc2ccccc2)c2nc(-c3ccc(F)cc3)ccc2n1

- melting point: 182 °C
SMILES: CCOc1nc(N)nc2ccc(-c3ccccc3F)nc12

- melting point: 199 to 200 °C
SMILES: Nc1nc(OCc2ccccc2)c2nc(-c3cccc(F)c3)ccc2n1

- melting point: 200 to 202 °C
SMILES: Nc1nc(OCc2ccccc2)c2nc(-c3ccccc3F)ccc2n1

- melting point: 136 to 137 °C
SMILES: CCCCCOc1nc(N)nc2ccc(-c3ccccc3F)nc12

- melting point: 165 °C
SMILES: CC(C)COc1nc(N)nc2ccc(-c3ccccc3F)nc12

- melting point: 172 to 173 °C
SMILES: CCCCOc1nc(N)nc2ccc(-c3ccc(F)cc3)nc12
